Data set [1] is described as follows: solubility in aqueous solutions and organic solvents. The format is physicochemical.
Data set [2] can be described thus: stability in the solid state. To be noted: stored at ambient conditions. The class given is physicochemical.
The nature of data set [3]: pH of a saturated solution in deionized water. The class given is physicochemical.
For data set [4] the following is noted: cited from earlier work.
Data set [5] is described as follows: apparent partition coefficient between octanol and water. The format is physicochemical. The following applies: buffered at pH 7.2.

Take `O=S1(=O)CCN(CN2CCS(=O)(=O)NC2)CN1` [taurolidine, 4,4′-methylenebis(tetrahydro-1,2,4-thiadiazine)-1,1,1′,1′,-tetraoxide]: the solubility entry in data set [1] (CHCl3) was “insoluble”; in data set [1] (Dilute HCl) it was “soluble”; in data set [1] (Dilute NaOH), “soluble”; in data set [1] (EtOH), “sparingly soluble”; in data set [1] (Water, at 20° C.) it was 1% at 20 °C. The “stability in the solid state” value in data set [2] is “acceptable stability”. Also, the “pH of a saturated solution” value in data set [3] worked out at 7.4. Moreover, in data set [4] (cumulative doses, up to and exceeding), the “cumulative dose shown to be safe and well tolerated” value is no less than 300 g. In addition, the “systemic dose shown to be safe and well tolerated” value in data set [4] (systemic doses) is “exceeding 40 g/day”. Also, the “apparent partition coefficient between octanol and water” value in data set [5] is “approximately 0.13”.

(Values after patent US6608051B1, “Compositions and methods for treating blood” (MedPointe Healthcare Inc., priority 1999, dated 2003).)
